Assay results as given in patent US5932556A, “Methods and compositions for regulation of CD28 expression” (priority 1995, dated 1999).

Assays:
[1] = test system: CD28 expression in anti-CD3/PMA-activated human T-cells; test: Activation-induced CD28 surface expression, immunofluorescence analysis; type: cell-based; details: for Relative inhibition of expression, CD28: anti-CD3/PMA-activated peripheral human T cells, relative to the activity of 5 μM RT03S (100%); for loss of inhibitory activity relative to RT03S: G to C substitutions within both four G regions
Experimental: (§1) Prior to the addition of human peripheral T-cells or T-cell lymphoma cell lines (0.2-0.3×10^6), duplicate 96-well microtitre plates were pre-coated with purified anti-CD3 monoclonal antibody (mAb) (6.25-200 ng/well) (clone HIT 3a, Pharmingen, San Diego, Calif.) and washed twice with cold phosphate-buffered saline, pH 7.4 (PBS). Anti-CD3 mAb-treated T-cells were further activated by the addition of 2 ng phorbol 12-myristate 13-acetate (PMA) (Calbiochem, La Jolla, Calif.) and incubated for 48 h at 37° C. Anti-CD3/PMA-activated T-cells were treated with 1-20 μM CD28-specific and control oligonucleotides immediately following activation and re-treated 24 h later. T-cells from one duplicate plate was used for immunofluorescence analysis and the supernatants used for cytokine studies and the second plate was used for T-cell proliferation analysis.
Following activation, […] cell supernatant from the first duplicate microplate was transferred to another microplate for analysis of cell-derived cytokine production. The remaining cells were washed twice with isotonic saline solution, pH 7.4 (Becton Dickinson, Mansfield, Mass.) and resuspended in […] isotonic saline solution and split into two samples. One sample aliquot was co-stained with either PE-CD28/FITC-CD4 or PE-CD54/FITC-CD25 mAb and non-specific fluorescence was assessed by staining the second aliquot with PE/FITC-labeled isotype-matched control monoclonal antibody. All fluorescence-labeled monoclonal antibodies were obtained from Becton Dickinson (San Jose, Calif.). Incubations were performed in the dark at 4° C. for 45 min using saturating mAb concentrations. Unincorporated label was removed by washing in PBS prior to the analysis with a FACScan flow cytometer (Becton Dickinson). Antigen density was indirectly determined in gated live cells and expressed as the mean channel of fluorescence (MCF). Surface expression of specific antigens (CD54, CD25) was represented as the mean channel shift (MCS) obtained by subtracting the MCF of FITC- or PE-labeled isotype-matched (IgG1) control mAb-stained cells from the MCF of FITC- or PE-labeled antigen-specific mAb stained cells. Alternatively, surface expression of the CD4^+ -subset of cells stained with CD28 mAb was determined by subtracting the MCF of […]. The viability of control untreated and oligonucleotide-treated cells were determined in each batch of all oligonucleotides in multiple donors by staining with the vital dye, propidium iodide (5 μg/ml final concentration). The percentage of live cells which excluded propidium iodide was determined by flow cytometry and was >90% (range 90-99%) following treatment with all batches of all oligonucleotides at a dose range of 1-20 μM (FIG. 2).
(§2) Peripheral blood mononuclear cells (PBMCs) were isolated from healthy donors by density gradient centrifugation followed by T cell enrichment using Lymphokwik (One Lambda). Contaminating monocytes were removed by adherence to plastic. Purified T cells were >99% CD2^+, <1% HLA-DR^+ and <5% CD25^+. Jurkat E6-1 (CD28^+ /CD4^+) T cells and HUT 78 (CD28^- /CD4^+) T cells and the monocytic cell line, THP were obtained from ATCC. Cells were cultured at a concentration of 0.2-0.3×10^6 /well and activated with plate-immobilized anti-CD3 monoclonal antibody (mAb) (HIT3A 0.25 μg/ml) (Pharmingen) and 2 ng phorbol 12-myristate 13-acetate (PMA) (Calbiochem).
Cells were co-stained with either PE-CD28/FITC-CD4 or PE-CD54/FITC-CD25 mAb or with PE/FITC-labeled isotype-matched controls (Becton Dickinson). Cell surface antigen density (CD28, CD54, CD25) was confirmed by flow cytometry (FACScan, Becton Dickinson). Viability was assessed by propidium iodide (5 μg/ml) exclusion in control untreated and oligo-treated CD4^+ cells from multiple donors and was typically >90% (range 90-99%) following 48 h incubation with 1-10 μM of each batch of all oligonucleotides.

[2] = test system: IL-2 production in Jurkat E6-1 cells; test: IL-2 production in activated Jurkat cells; type: cell-based, human; details: activated IL-2 production in Jurkat T cells; relative to the activity of 5 μM RT03S (100%)
Experimental: The T-cell lymphoma cell lines, Jurkat E6-1 (CD28+/CD4+) cells (152-TIB) and HUT 78 (CD28-/CD4+) cells (TIB-161) (ATCC, Rockville, Md.) were maintained in RPMI-10 (RPMI-1640 medium containing […] HEPES buffer, pH 7.4, 10% fetal calf serum (FCS) (Hyclone, Logan, Utah), 1% L-glutamine and 1% penicillin/streptomycin).
as §1
Cell-derived human cytokine concentrations were determined in cell supernatants from the first duplicate microplate. Mitogen-induced changes in interleukin-2 (IL-2) levels were determined using a commercially available ELISA kit (R & D systems Quantikine kit, Minneapolis, Minn.) or by bioassay using the IL-2-dependent cell line, CTLL-2 (ATCC, Rockville, Md.). Mitogen-induced changes in interferon-gamma and interleukin-8 (IL-8) levels were determined by ELISA using kits from Endogen (Cambridge, Mass.) and R & D systems (Quantikine kit, Minneapolis, Minn.) respectively. All ELISA results were expressed as pg/ml and the CTLL-2 bioassay as counts per minute representing the IL-2 -dependent cellular incorporation of ^3 H-thymidine (ICN, Costa Mesa, Calif.) by CTLL-2 cells.
as §2
Proliferative responses were assessed by measuring ^3 H-thymidine (1 μCi, ICN) incorporation for the last 16 h of each assay. Cells were harvested onto filters and DNA synthesis was measured following scintillation counting on a Wallac Betaplate counter. Cytokine concentrations in culture supernatants were assayed using ELISA kits for IL-2, IL-8 (R & D Systems) and IFN-γ (Endogen) or by bioassay using the IL-2 -dependent cell line, CTLL-2 (ATCC).

[3] = biological target: CD3 (T-cell receptor/CD3 complex) on human T cells (human)
[4] = biological target: CD3 (T-cell receptor/CD3 complex) on human T cells (human); remark: listed apart in the source

| surface expression of CD28 (immunofluorescence, MCS) [3] | incorporation of 3H-thymidine (T-cell proliferation) (counts per minute) [4] | Substance | Relative inhibition of expression, CD28 [1] | Relative inhibition of expression, IL-2 [2] | loss of inhibitory activity relative to RT03S ([1]; range over the named group) | reduction of relative bioactivity ([1]; insertion or deletion of bases separating the sets of G's, range over the named group) |
| --- | --- | --- | --- | --- | --- | --- |
|  |  | RT05S: TTG GAG GGG GAG GAG GGG, SEQ ID NO: 51 (DNA TTGGAGGGGGAGGAGGGG; chemistry not given here) | 136% | 100% |  |  |
|  |  | RT06S: TTC CAG CCC CTC CTC CCC, SEQ ID NO: 64 (DNA TTCCAGCCCCTCCTCCCC; chemistry not given here) | 29% | 22% |  |  |
|  |  | RT09S: TTG GAG GGG GAG GTG GGG, SEQ ID NO: 52 (DNA TTGGAGGGGGAGGTGGGG; chemistry not given here) | 126% | 100% |  |  |
|  |  | RT10S: TTG GAG GCG GTG GTG GCG, SEQ ID NO: 53 (DNA TTGGAGGCGGTGGTGGCG; chemistry not given here) | 31% | 38% | 56-69% |  |
|  |  | RT11S: GGG GAG GAG GGG CTG GAA, SEQ ID NO: 50, sense sequence, upstream region of the CD28 gene (sense GGGGAGGAGGGGCTGGAA; chemistry not given here) | 100% | 100% |  |  |
|  |  | RT18S: GGG GTG GTG GGG, SEQ ID NO: 57, core 12 mer sequence (DNA GGGGTGGTGGGG; chemistry not given here) | 103% | 120% |  |  |
|  |  | RT19S: G GGG TTG GGG, SEQ ID NO: 58 (DNA GGGGTTGGGG; chemistry not given here) | 30% | 89% |  | 52-70% |
|  |  | RT23S: TTG GAGCCG GTG GTG G, SEQ ID NO: 56 (DNA TTGGAGCCGGTGGTGG; chemistry not given here) | 38% | 57% | 56-69% |  |
|  |  | RT24S: TTG GAG CCG GTG GTG GCC, SEQ ID NO: 54 (DNA TTGGAGCCGGTGGTGGCC; chemistry not given here) | 40% | 57% | 56-69% |  |
|  |  | RT25S: TTG GAG GGG CTC CTC GGG, SEQ ID NO: 55 (DNA TTGGAGGGGCTCCTCGGG; chemistry not given here) | 44% | 25% | 56-69% |  |
| 150 MCS | 302000 | anti-CD3 monoclonal antibody (clone HIT 3a, Pharmingen) |  |  |  |  |
